Patent US20160193148A1, “LIPOSOMAL FORMULATIONS FOR THE TREATMENT OF BACTERIAL INFECTIONS” (UNIVERSITY OF GEORGIA RESEARCH FOUNDATION, INC., priority 2013, published 2016)
Where “and” joins values, the source holds several entries; their conditions need not be identical. Equal values may be shown once. Marks after values point to notes of the source that are not given here.

Legend:
[1] = BAL cell gentamicin concentrations after single IV or nebulized dose in foals; conditions: BAL cells
Procedure: Eight healthy 5-7-week-old Quarter Horse foals were randomly assigned to one of 4 groups using a balanced Latin-square design. Foals were considered healthy on the basis of physical examinations, complete blood cell counts and plasma biochemical profiles. […] The liposome gentamicin formulation was nebulized using Nortev FLEXINEB. For each treatment, gentamicin was administered over a period of 15 minutes. There was a washout period of 7-14 days between each treatment.
For the BAL collection, foals were sedated with xylazine and butorphanol. Concentrations of gentamicin were measured in plasma and in bronchoalveolar cells using HPLC-MS.
Eight foals received a single IV or nebulized dose (6.6 mg/kg bwt) of FG^h or LG in a balanced Latin square design. Beginning at 5-7 weeks of age, every foal received each of the 4 possible drug-route combinations with a 14-day washout period between each administration. Intravenous FG and LG were diluted in 250 ml of sterile 0.9% saline and administered via a jugular catheter as a constant rate infusion over 15 min. Nebulized FG and LG were administered by inhalation over 15 minutes via a commercial equine nebulizer. To ensure equivalent rate of delivery, FG was diluted to the same volume as LG with sterile 0.9% saline. Particle size of nebulized LG was verified using laser diffraction. Blood samples for plasma separation were obtained from a catheter placed in the contralateral jugular vein prior to each drug administration, and at 5, 10, 20, 30, 45 minutes and 1, 1.5, 2, 3, 4, 6, 8, 12, 16, 24 and 48 hours after the end of the 15 minute IV infusion or nebulization period. Bronchoalveolar lavage (BAL) fluid was collected at 2, 4, 8, 24, and 48 hours. Foals were sedated with xylazine hydrochloride (0.5 mg/kg bwt IV) and butorphanol tartrate (0.07 mg/kg bwt IV) prior to collection of BAL fluid. Prior to analysis for gentamicin concentration, blood samples were centrifuged at 400×g for 10 minutes and the resultant plasma frozen at −80° C. until assayed.
(§1) A 10 mm diameter, 2.4 m BAL catheter^k was passed via nasal approach until wedged into a bronchus. The lavage solution consisted of 4 aliquots of 60 ml 0.9% saline solution infused and instantly aspirated. Immediately upon collection, the total volume of BAL fluid recovered was measured and a 3 ml aliquot saved in an EDTA tube from which total nucleated cell count was determined by use of a cell counter.^1 BAL fluid was immediately centrifuged at 400×g for 10 min. The BAL cells in the resultant pellet were washed, re-suspended in 500 μl of acetonitrile: 0.2% formic acid (1:1, v/v), vortexed, and frozen at −80° C. until assayed. Supernatant BAL fluid was also frozen at −80° C. until assayed. Before assaying, the cell pellet samples were thawed, vortexed vigorously and sonicated for 10 minutes to ensure complete cell lysis. The resulting suspension was centrifuged at 500×g for 10 minutes and the supernatant fluid was used to determine the intracellular concentrations of gentamicin.
(§2) Briefly, gentamicin was extracted from plasma (250 μl) and urine (500 μl) using protein precipitation with an equal volume of ice-cold 90:10 acetonitrile: 0.2% formic acid (v/v). Extracted samples were centrifuged (2° C. at 10,000×g for 10 min) twice. Two-hundred microliters of the supernatants were transferred to polypropylene inserts for injection. The supernatant derived from the lyzed BAL cell pellet was transferred to polypropylene inserts for direct injection without further processing. […] An aliquot of the resultant supernatant was then mixed with an equal volume of ice-cold acetonitrile, centrifuged (2° C. at 10,000×g for 10 minutes) and 200 μl was transferred to polypropylene inserts for injection. Calibration standards were prepared in drug-free foal plasma, BAL fluid or urine and then extracted as described above so that standard curves specific to each biologic matrix could be constructed.

[2] = test system: R. equi isolates; conditions: Riesenberg et al. 2013; cited from earlier work
[3] = Repeated dose IV LG or FG: gentamicin in plasma, BAL cells and urine of foals
Procedure: Each dose was diluted in 250 ml of sterile 0.9% saline and administered over 15 minutes via an indwelling 14 G catheter placed in a jugular vein. Blood samples for plasma separation and measurement of gentamicin concentrations were obtained on day 1 and on day 7 at the times listed for study 1. Bronchoalveolar lavage fluid was collected 2, 6 and 24 hours after the end of infusion on day 7. Urine was collected the day prior to the first drug dose (day 0) and again 2 hours after the end of the infusion on days 3 and 7. Foals were sedated with xylazine hydrochloride (1.1 mg/kg bwt IV) and anesthetized with ketamine (2.2 mg/kg bwt IV) to allow passage of a urinary catheter using aseptic techniques. Urinalysis was performed and urine and concurrently obtained plasma samples were submitted for measurement of creatinine, γ-glutamyltransferase (GGT), protein, calcium, chloride, magnesium, sodium, and potassium concentrations. Fractional excretion of electrolytes, urinary GGT to creatinine ratio, and urinary protein to creatinine ratios were calculated. Prior to analysis for gentamicin concentration by LC-MS, urine and plasma samples were centrifuged at 400×g for 10 minutes and the supernatant was frozen at −80° C. until assayed.
as §1
as §2, with “constructed. […] Analyte separation and LC-MS/MS measurement of gentamicin were performed exactly as described previously (Burton et al. (2013) Equine Vet J. 45, 507-511) except that BAL fluid samples, were introduced in the MS with a flow rate of 0.18 ml/minutes and a total run time of 8 minutes due to relatively low gentamicin concentration in those samples.” for “constructed.”
Estimation of the volume of PELF was determined by urea dilution method (Rennardet al. (1986) J. Appl. Physiol 60, 532-538).

[4] = 6.6 mg/kg IV q 24 h, 7 doses, day 7

For gentamicin sulfate [Free Gentamicin], which AUC0-t ([1]; IV) is on record?
Its AUC0-t is 58.9 ± 41.5^a μg · h/ml.

What about the C24 h ([1]; IV) of the same substance?
Its C24 h is 1500 ± 1230 ng/mL.

What about the “Tmax (median and range)” value ([1]; IV) of the same substance?
Its value is 2 (2-8)^a h.

And the AUC0-24 ([1]; IV, Table 3)?
The AUC0-24 was 58900 ± 41500 ng·h/mL.

What about the C48 h ([1]; IV, Table 3) of the same substance?
The C48 h was 0.5 ± 0.6 µg/mL.

What about the Cmax ([1]; IV, Table 3) of the same substance?
Its Cmax is 3.0 ± 1.7 µg/mL.

And the C48 h ([1]; IV, Table 5)?
The C48 h was 0.47 ± 0.62^a μg/ml.

And the Cmax ([1]; IV, Table 5, listed as FG)?
The Cmax was 3.0±1.7 μg/ml and 2.98 ± 1.67^a μg/ml.

And the AUC0-24 ([1]; N (nebulized), Table 3)?
Its AUC0-24 is 37200 ± 18900 ng·h/mL.

And the C48 h ([1]; N (nebulized), Table 3)?
Its C48 h is 0.3 ± 0.2 µg/mL.

And the Cmax ([1]; N (nebulized), Table 3)?
Its Cmax is 1.5 ± 0.6 µg/mL.

And the AUC0-t ([1]; Neb)?
Its AUC0-t is 37.2 ± 19.0^a μg · h/ml.

What about the C24 h ([1]; Neb) of the same substance?
The C24 h was 1010 ± 570 ng/mL.

And the “Tmax (median and range)” value ([1]; Neb)?
Its value is 3 (2-48)^a h.

And the C48 h ([1]; Neb, Table 5)?
The C48 h was 0.32 ± 0.23^a μg/ml.

And the Cmax ([1]; Neb, Table 5, listed as FG)?
The Cmax was 1.5±0.6 μg/ml and 1.49 ± 0.57^a μg/ml.

And the “MIC that inhibits at least 90% (MIC90) of R. equi isolates” value [2]?
Its value is 0.5 µg/mL.

And the “AUC0-t in BAL cells” value [3, 4]?
The value was 104800 ± 35100 ng·h/mL.

And the “Cmax in BAL cells” value [3, 4]?
Its value is 6700 ± 1900 ng/mL.

What about the “Concentration in BAL cells at 24 hours” value [3, 4] of the same substance?
The value was 3500 ± 1800 ng/mL.

And the “Tmax in BAL cells (median)” value ([3]; 6.6 mg/kg IV q 24 h, 7 doses, day 7, range 2-24 hours)?
Its value is 6 h.

And the Urine gentamicin ([3]; Day 3)?
The Urine gentamicin was 94.8 ± 47.5 µg/mL.

What about the Urine gentamicin ([3]; Day 7) of the same substance?
Its Urine gentamicin is 87.5 ± 5 µg/mL.

And the “accumulation in plasma over 1 week of daily administration” value ([3]; day 1 vs day 7 plasma pharmacokinetic variables)?
The value was “no accumulation”.
